Where two headings read alike, the source gives them in different places.
Experiments:
[1] = system: pediatric subjects 2 to <17 years
clinical = details: human
[2] = Group I, Dose Level 1, LD 0.25/CD 0.2 μg/kg/hr, N = 8, safety population
[3] = Group I, Dose Level 2, LD 0.50/CD 0.4 μg/kg/hr, N = 6, safety population
[4] = Group I, Dose Level 3, LD 1.00/CD 0.7 μg/kg/hr, N = 6, safety population
[5] = Group I, Dose Level 4, LD 1.00/CD 2.00 μg/kg/hr, N = 6, safety population
[6] = Group II, Dose Level 1, LD 0.25/CD 0.2 μg/kg/hr, N = 8, safety population
[7] = Group II, Dose Level 2, LD 0.50/CD 0.4 μg/kg/hr, N = 8, safety population
[8] = Group II, Dose Level 3, LD 1.00/CD 0.7 μg/kg/hr, N = 9, safety population
[9] = Group II, Dose Level 4, LD 1.00/CD 2.00 μg/kg/hr, N = 8, safety population

SMILES: Cc1cccc([C@H](C)c2cnc[nH]2)c1C [dexmedetomidine]
- Drug-related TEAE: Bradycardia [1, 2]: 0 n (%)
- Drug-related TEAE: Hypertension [1, 2]: 0 n (%)
- Drug-related TEAE: Hypotension [1, 2]: 0 n (%)
- Drug-related TEAE: Sedation [1, 2]: 0 n (%)
- Number of Drug-related TEAE [1, 2]: 0
- Subjects with at least 1 Drug-Related TEAE [1, 2]: 0 n (%)
- Drug-related TEAE: Bradycardia [1, 3]: 0 n (%)
- Drug-related TEAE: Hypertension [1, 3]: 0 n (%)
- Drug-related TEAE: Hypotension [1, 3]: 0 n (%)
- Drug-related TEAE: Sedation [1, 3]: 0 n (%)
- Number of Drug-related TEAE [1, 3]: 0
- Subjects with at least 1 Drug-Related TEAE [1, 3]: 0 n (%)
- Drug-related TEAE: Bradycardia [1, 4]: 1 (16.7) n (%)
- Drug-related TEAE: Hypertension [1, 4]: 1 (16.7) n (%)
- Drug-related TEAE: Hypotension [1, 4]: 0 n (%)
- Drug-related TEAE: Sedation [1, 4]: 0 n (%)
- Number of Drug-related TEAE [1, 4]: 2
- Subjects with at least 1 Drug-Related TEAE [1, 4]: 1 (16.7) n (%)
- Drug-related TEAE: Bradycardia [1, 5]: 1 (16.7) n (%)
- Drug-related TEAE: Hypertension [1, 5]: 0 n (%)
- Drug-related TEAE: Hypotension [1, 5]: 1 (16.7) n (%)
- Drug-related TEAE: Sedation [1, 5]: 2 (33.3) n (%)
- Number of Drug-related TEAE [1, 5]: 4
- Subjects with at least 1 Drug-Related TEAE [1, 5]: 4 (66.7) n (%)
- Drug-related TEAE: Bradycardia [1, 6]: 0 n (%)
- Drug-related TEAE: Chills [1, 6]: 0 n (%)
- Drug-related TEAE: Hypertension [1, 6]: 0 n (%)
- Drug-related TEAE: Sedation [1, 6]: 0 n (%)
- Number of Drug-related TEAE [1, 6]: 0
- Subjects with at least 1 Drug-Related TEAE [1, 6]: 0 n (%)
- Drug-related TEAE: Bradycardia [1, 7]: 0 n (%)
- Drug-related TEAE: Chills [1, 7]: 0 n (%)
- Drug-related TEAE: Hypertension [1, 7]: 0 n (%)
- Drug-related TEAE: Sedation [1, 7]: 0 n (%)
- Number of Drug-related TEAE [1, 7]: 0
- Subjects with at least 1 Drug-Related TEAE [1, 7]: 0 n (%)
- Drug-related TEAE: Bradycardia [1, 8]: 1 (11.1) n (%)
- Drug-related TEAE: Chills [1, 8]: 1 (11.1) n (%)
- Drug-related TEAE: Hypertension [1, 8]: 1 (11.1) n (%)
- Drug-related TEAE: Sedation [1, 8]: 0 n (%)
- Number of Drug-related TEAE [1, 8]: 3
- Subjects with at least 1 Drug-Related TEAE [1, 8]: 2 (22.2) n (%)
- Drug-related TEAE: Bradycardia [1, 9]: 0 n (%)
- Drug-related TEAE: Chills [1, 9]: 0 n (%)
- Drug-related TEAE: Hypertension [1, 9]: 3 (37.5) n (%)
- Drug-related TEAE: Sedation [1, 9]: 1 (12.5) n (%)
- Number of Drug-related TEAE [1, 9]: 4
- Subjects with at least 1 Drug-Related TEAE [1, 9]: 4 (50.0) n (%)
- treatment-related TEAE: chills ([1]; human, in vivo): 1 subjects
- treatment-related TEAE: hypotension ([1]; human, in vivo): 1 subjects
- deaths ([1]; safety population): No deaths
- Vd (clinical; in vivo): 43 L
- AUC(0-t) (clinical; in vivo, AUC0-t): 117 ng·h/mL
- AUC(0-inf) (clinical; in vivo, AUC0-∞): 117 ng·h/mL
- Cmax (clinical; in vivo, Cmax): 28.8 ng/mL
- clearance (clinical; in vivo, weight-adjusted clearance): ~16.7 mL/min/kg
- clearance (clinical; plasma, intravenous, 0.2 ug/kg, CL, Group I (≥2 to <6 y), Dose Level 1 (LD 0.25/CD 0.2 μg/kg/hr), geometric mean, full evaluable population): 271 mL/min
- clearance (clinical; plasma, intravenous, 0.2 ug/kg, CL, Group II (≥6 to <17 y), Dose Level 1 (LD 0.25/CD 0.2 μg/kg/hr), geometric mean, full evaluable population): 412 mL/min
- Vd (clinical; plasma, intravenous, 0.2 ug/kg, Vd, Group I (≥2 to <6 y), Dose Level 1 (LD 0.25/CD 0.2 μg/kg/hr), geometric mean, full evaluable population): 36.9 L
- Vd (clinical; plasma, intravenous, 0.2 ug/kg, Vd, Group II (≥6 to <17 y), Dose Level 1 (LD 0.25/CD 0.2 μg/kg/hr), geometric mean, full evaluable population): 51.7 L
- clearance (clinical; plasma, intravenous, 0.4 ug/kg, CL, Group I (≥2 to <6 y), Dose Level 2 (LD 0.50/CD 0.4 μg/kg/hr), geometric mean, full evaluable population): 212 mL/min
- clearance (clinical; plasma, intravenous, 0.4 ug/kg, CL, Group II (≥6 to <17 y), Dose Level 2 (LD 0.50/CD 0.4 μg/kg/hr), geometric mean, full evaluable population): 413 mL/min
- Vd (clinical; plasma, intravenous, 0.4 ug/kg, Vd, Group I (≥2 to <6 y), Dose Level 2 (LD 0.50/CD 0.4 μg/kg/hr), geometric mean, full evaluable population): 31.8 L
- Vd (clinical; plasma, intravenous, 0.4 ug/kg, Vd, Group II (≥6 to <17 y), Dose Level 2 (LD 0.50/CD 0.4 μg/kg/hr), geometric mean, full evaluable population): 61.2 L
- clearance (clinical; plasma, intravenous, 0.7 ug/kg, CL, Group I (≥2 to <6 y), Dose Level 3 (LD 1.00/CD 0.7 μg/kg/hr), geometric mean, full evaluable population): 276 mL/min
- clearance (clinical; plasma, intravenous, 0.7 ug/kg, CL, Group II (≥6 to <17 y), Dose Level 3 (LD 1.00/CD 0.7 μg/kg/hr), geometric mean, full evaluable population): 274 mL/min
- Vd (clinical; plasma, intravenous, 0.7 ug/kg, Vd, Group I (≥2 to <6 y), Dose Level 3 (LD 1.00/CD 0.7 μg/kg/hr), geometric mean, full evaluable population): 46.6 L
- Vd (clinical; plasma, intravenous, 0.7 ug/kg, Vd, Group II (≥6 to <17 y), Dose Level 3 (LD 1.00/CD 0.7 μg/kg/hr), geometric mean, full evaluable population): 46.6 L
- clearance (clinical; plasma, intravenous, 2 ug/kg, CL, Group I (≥2 to <6 y), Dose Level 4 (LD 1.00/CD 2.00 μg/kg/hr), geometric mean, full evaluable population): 199 mL/min
- clearance (clinical; plasma, intravenous, 2 ug/kg, CL, Group II (≥6 to <17 y), Dose Level 4 (LD 1.00/CD 2.00 μg/kg/hr), geometric mean, full evaluable population): 423 mL/min
- Vd (clinical; plasma, intravenous, 2 ug/kg, Vd, Group I (≥2 to <6 y), Dose Level 4 (LD 1.00/CD 2.00 μg/kg/hr), geometric mean, full evaluable population): 36.3 L
- Vd (clinical; plasma, intravenous, 2 ug/kg, Vd, Group II (≥6 to <17 y), Dose Level 4 (LD 1.00/CD 2.00 μg/kg/hr), geometric mean, full evaluable population): 72.8 L
- AUC(0-t) (clinical; plasma, intravenous, AUC0-t Mean, Dose Level 1, LD 0.25/CD 0.2 μg/kg/hr, full evaluable population): 2.68 ng·h/mL
- AUC(0-t) (clinical; plasma, intravenous, AUC0-t Mean, Dose Level 2, LD 0.50/CD 0.4 μg/kg/hr, full evaluable population): 6.46 ng·h/mL
- AUC(0-t) (clinical; plasma, intravenous, AUC0-t Mean, Dose Level 3, LD 1.00/CD 0.7 μg/kg/hr, full evaluable population): 17 ng·h/mL
- AUC(0-t) (clinical; plasma, intravenous, AUC0-t Mean, Dose Level 4, LD 1.00/CD 2.00 μg/kg/hr, full evaluable population): 28.5 ng·h/mL
- AUC(0-t) (clinical; plasma, intravenous, AUC0-t Median, Dose Level 1, LD 0.25/CD 0.2 μg/kg/hr, full evaluable population): 1.54 ng·h/mL
- AUC(0-t) (clinical; plasma, intravenous, AUC0-t Median, Dose Level 2, LD 0.50/CD 0.4 μg/kg/hr, full evaluable population): 5.25 ng·h/mL
- AUC(0-t) (clinical; plasma, intravenous, AUC0-t Median, Dose Level 3, LD 1.00/CD 0.7 μg/kg/hr, full evaluable population): 5.61 ng·h/mL
- AUC(0-t) (clinical; plasma, intravenous, AUC0-t Median, Dose Level 4, LD 1.00/CD 2.00 μg/kg/hr, full evaluable population): 25.4 ng·h/mL
- AUC(0-t) (clinical; plasma, intravenous, AUC0-t, Table 30 key summary (mean), Dose Level 1, LD 0.25/CD 0.2 μg/kg/hr, full evaluable population): 2.68 ng·h/mL
- AUC(0-t) (clinical; plasma, intravenous, AUC0-t, Table 30 key summary (mean), Dose Level 2, LD 0.50/CD 0.4 μg/kg/hr, full evaluable population): 6.46 ng·h/mL
- AUC(0-t) (clinical; plasma, intravenous, AUC0-t, Table 30 key summary (mean), Dose Level 3, LD 1.00/CD 0.7 μg/kg/hr, full evaluable population): 17 ng·h/mL
- AUC(0-t) (clinical; plasma, intravenous, AUC0-t, Table 30 key summary (mean), Dose Level 4, LD 1.00/CD 2.00 μg/kg/hr, full evaluable population): 28.5 ng·h/mL
- AUC(0-inf) (clinical; plasma, intravenous, AUC0-∞ Mean, Dose Level 1, LD 0.25/CD 0.2 μg/kg/hr, full evaluable population): 3.15 ng·h/mL
- AUC(0-inf) (clinical; plasma, intravenous, AUC0-∞ Mean, Dose Level 2, LD 0.50/CD 0.4 μg/kg/hr, full evaluable population): 6.67 ng·h/mL
- AUC(0-inf) (clinical; plasma, intravenous, AUC0-∞ Mean, Dose Level 3, LD 1.00/CD 0.7 μg/kg/hr, full evaluable population): 17.3 ng·h/mL
- AUC(0-inf) (clinical; plasma, intravenous, AUC0-∞ Mean, Dose Level 4, LD 1.00/CD 2.00 μg/kg/hr, full evaluable population): 29 ng·h/mL
- AUC(0-inf) (clinical; plasma, intravenous, AUC0-∞ Median, Dose Level 1, LD 0.25/CD 0.2 μg/kg/hr, full evaluable population): 1.58 ng·h/mL
- AUC(0-inf) (clinical; plasma, intravenous, AUC0-∞ Median, Dose Level 2, LD 0.50/CD 0.4 μg/kg/hr, full evaluable population): 5.52 ng·h/mL
- AUC(0-inf) (clinical; plasma, intravenous, AUC0-∞ Median, Dose Level 3, LD 1.00/CD 0.7 μg/kg/hr, full evaluable population): 6.08 ng·h/mL

— patent publication US20130096170A1 (priority 2011, published 2013)
